# In patent US5149688A, “Methods, compounds, and compositions for immunosuppression” (priority 1990, dated 1992):
# Like-named read-outs stand apart in the source and are kept apart here.
# Experiments:
# [1] = test system: rheumatoid arthritis (RA); conditions: human, in vivo; cited from earlier work
# [2] = test system: adjuvant arthritis (AA); assay: Prophylactic effect of SA on adjuvant arthritis in rats (Example 1); assay type: in vivo, male Lewis rats
# [3] = Plasma levels of SA during CI therapy (HPLC); assay type: in vivo, male Lewis rats; conditions: 400 mg/kg/day CI; for concentration at 216 h: rat, plasma, sc, 400 mg/kg/day
# [4] = test system: adjuvant arthritis (AA); assay: Therapeutic effect of SA on AA (Example 2); assay type: in vivo, rats
# Protocol: The following experiments examined the therapeutic effect of SA on the progression of AA. In these studies, the treatments with SA began at day 5 after the rats had been immunized with M.Tb in their left footpads. At this time, the activation of lymphoid cells with M.Tb was well established and the appearance of mononuclear cells at the joint has been reported as the earliest histologic findings. Billingham, 1983, Pharma. Theory, 21: 389.
# 325 mg/kg/day of SA was administered by subcutaneous pump infusion from day 5 until day 19. The control animals received isotonic and isovolumic NaCl control.
# A parallel group of animals were treated with daily intraperitoneal injections of 800 mg/kg/day of SA (FIGS. 6 and 7). This was done to compare the relative efficacy of continuous infusion versus a single daily intraperitoneal injection.
# [5] = test system: adjuvant arthritis (AA); assay: Comparative efficacy of MTX and SA in suppressing onset of AA (Example 3); assay type: in vivo, Lewis rats
# Protocol: On the same day, pumps were surgically implanted into the first two groups. The first group received SA at 300 mg/kg/day through the pumps. The second group, which served as the control, received continuous infusion of 2.5M NaCl through the pumps.
# [6] = test system: established adjuvant arthritis (AA); assay: Comparative efficacy of SA and MTX in the treatment of established arthritis (Example 4); assay type: in vivo, male Lewis rats
# Protocol: Three groups of 15 male Lewis rats were injected with M.Tb on day 0 in the left hindpaw. […] On day 16, subcutaneous pumps were placed in the SA and control groups. SA was administered at 300 mg/kg/day by CI. The control group received 2.5M NaCl. […] Treatment was continued to day 30.
# [7] = test system: adjuvant arthritis (AA); assay: Long term suppression of AA using combined SA and MTX treatment (Example 6); assay type: in vivo, male Lewis rats; conditions: SA 300 mg/kg/day IP or MTX 0.9 mg/kg/week IP, day 5 to 15
# Protocol: On day 0, three groups of 10 male Lewis rats were injected with M.Tb in oil suspension, as in previous examples. […] The animals were evaluated for arthritis development.
# [8] = rat, in vivo
# Protocol: (§3) Isotonic and isovolumic saline was used as the control in this subcutaneous infusion treatment regimen (hereinafter referred to as SQ, or continuous infusion, CI, regimen). The treatment was started on day -4 prior to M.Tb injection (day 0). The pumps were calculated to infuse until day 10. Ten rats were used in each group.
# [9] = test system: adjuvant arthritis (AA)
# [10] = test system: delta-aminolevulinic dehydratase; conditions: cited from earlier work
# [11] = test system: allogeneic tumors; conditions: rats; cited from earlier work
# [12] = Body weight / toxicity of rats under prophylactic SA treatment; conditions: SA level necessary for suppression of AA
# Protocol: as §3
# [13] = test system: adjuvant arthritis (AA); assay: Therapeutic treatment of AA with SA and/or MTX, summary of set of experiments run in triplicate
# Protocol: In the SA and MTX combined treatment regimen, the SA was administered in an amount ranging from 150-300 mg/kg/day. The MTX was administered three times a week in IP injections, at a total of 0.9 mg/kg/week.
# [14] = test system: dihydrofolate reductase; conditions: cited from earlier work
# [15] = test system: lymphocytes; assay: Phytohemagglutinin A (PHA) assay; assay type: cell-based; conditions: Lymphocyte, read-out: concentration giving 50% inhibition, PHA assay
# Description: (§1) The following studies sought to characterize the immunosuppressive activities of ABA, both as to in vitro and in vivo efficacy in experimental systems. It is important to point out that the results obtained from the in vitro systems are generally predictive of the in vivo immunosuppressive properties of the ABA. More specifically, the assays used here are mixed lymphocyte response (MLR) and phytohemagglutinin A (PHA) assays which are valuable for identifying immune suppressive molecules in vitro, and that the results obtained therefrom are generally predictive of their in vivo effectiveness. The assays are further described below.
# A second assay widely used to study immune responsiveness is mitogenic stimulation of lymphocytes with mitogenic substances of plant origin. The most widely used plant molecule is PHA.
# (§2) Thus, it will be appreciated as to both the mixed lymphocyte and PHA assay that they are valuable for identifying immune suppressive molecules in vitro, and that the results obtained therefrom are generally predictive of their in vivo effectiveness.
# [16] = test system: lymphocytes; assay: Primary mixed lymphocyte response (MLR) assay; assay type: cell-based; conditions: read-out: concentration giving 50% inhibition, primary MLR assay
# Description: as §1
# The in vitro mixed lymphocyte assay is presently employed in the clinical setting as an indicator of histocompatibility, and is premised on the transformation of resting genetically dissimilar lymphocytes into cells which synthesize DNA and undergo proliferation.
# as §2
# [17] = test system: lymphocytes; assay: Secondary mixed lymphocyte reaction (2'-MLR) assay; assay type: cell-based; conditions: read-out: concentration inhibiting 50% of the stimulatory activity, 2'-MLR
# Description: In addition to the above immunosuppressive assays, a secondary mixed lymphocyte reaction assay was applied to ABA. The secondary mixed lymphocyte assays differs from the primary mixed lymphocyte reaction assays in that they employ many more primed responder cells that are responsive to the primary stimulating cells. The presence of such responsive cells is a reflection of immunological memory in an ongoing immunological response. […] Generally between 10% to 50% of the original input cells are recovered in viable condition. These cells are then used in the secondary mixed lymphocyte reaction.
# The procedure for carrying out a secondary mixed lymphocyte reaction is described by T. Meoen, Immunological Methods, Eds I. Lefkoivits and B. Pernis, […], New York (1979). It will be appreciated that described therein is a method for carrying out secondary lymphocyte reactions using mouse cells, however such methods are generally applicable to performing secondary mixed lymphocyte reactions using human cells with modifications that are well known to those skilled in the art.
# [18] = SA 300 mg/kg/day CI, day 16 to 30
smiles,measurement,setting,value
CC(C)(S)[C@@H](N)C(=O)O [D-penicillamine],toxic side effects,[1],causes bone marrow depression and renal toxicity
"CC(=O)CC(=O)CCC(=O)O [SA, Succinylacetone]","arthritis severity, dose dependence","[2]; SA 400 and 200 mg/kg/day CI, day -4 to day 10",inhibited arthritis severity in a dose dependent manner
same,right footpad swelling and arthritis in non-injected extremities,"[2]; SA 400 and 200 mg/kg/day, SQ ALZET pumps, day -4 to day 10, FIGS. 1 and 2",suppression of clinical arthritis
same,histologic arthritis of the joints,"[2]; SA treated cohort, CI",found to suppress histologic arthritis
same,concentration,"[3]; blood collected on day 9, individual rats SA-C1, SA-C2, SA-C3, 12960 min, 12960 min, read-out: SA Level (plasma)",50 µM
same,concentration at 216 h,"[3]; blood collected on day 9, individual rats SA-C1, SA-C2, SA-C3, read-out: SA Level (plasma)",44 µM
same,concentration at 216 h,"[3]; day 9, HPLC, read-out: plasma SA levels associated with clinical suppression of arthritis",40 to 50 µM
same,continuous infusion versus daily IP injection,[4]; 325 mg/kg/day CI vs 800 mg/kg/day IP,continuous infusion results in greater suppression at a lower dose than does daily IP injection
same,right hindpaw swelling and clinical severity of arthritis,"[4]; SA 325 mg/kg/day SQ pump infusion, day 5 to 19, FIGS. 4 and 5",Right hindpaw swelling and clinical severity of arthritis was suppressed
same,arthritis during treatment,[4]; SA 325 mg/kg/day continuous infusion,completely suppressed during treatment
same,day until which the clinical scores did not increase,"[4]; SA 325 mg/kg/day continuous infusion, day 5 to 19",36 days
same,increase in clinical scores relative to saline treated animals,"[4]; SA 325 mg/kg/day continuous infusion, from day 36",less than half of the saline treated animals
same,suppression of AA beyond termination of treatment,"[4]; SA 800 mg/kg/day IP, FIG. 7",did not suppress the AA beyond the termination of the treatment regimen
same,day by which groups reached equivalent severity to the controls,"[4]; SA 800 mg/kg/day, daily IP",≤ 33 days
same,footpad swelling after termination of treatment,"[4]; SA 800 mg/kg/day, daily IP","an attenuated increase in footpad swelling was observed, however, the swelling was less than that found in the controls"
same,footpad swelling during treatment,"[4]; SA 800 mg/kg/day, daily IP, FIG. 6",suppression of footpad swelling until the treatment stopped
same,clinical severity of arthritis,"[4]; SA 800 mg/kg/day, daily IP, FIG. 7",delayed the clinical severity of the arthritis
same,"suppression of arthritis, both regimens",[4]; continuous infusion and daily IP injections,resulted in suppression of arthritis
same,suppression of AA based on disease incidence,[5]; SA 300 mg/kg/day CI,maximal suppression of AA based on the disease incidence
same,"footpad swelling, SA compared with MTX",[5]; SA 300 mg/kg/day CI vs MTX […] and 3 mg/kg/week,trend towards greater inhibition
same,incidence of arthritis,"[5]; SA 300 mg/kg/day CI, day 14, FIG. 9",no incidence of arthritis on day 14
same,footpad swelling suppression,"[5]; SA 300 mg/kg/day CI, MTX 2.4 and 3 mg/kg/week IP, FIG. 8",significant suppression
same,"right footpad diameter, progression from day 23 to 63","[6]; SA 300 mg/kg/day CI or MTX […] IP, day 16 to 30, FIG. 10",did not increase significantly
same,persistence of lack of further swelling after cessation of treatment,[6]; [18],up to 33 days
same,progression / regression of established arthritis,[6]; [18],"SA prevented progression of AA, but because the disease had already established itself at the onset of treatment, SA did not cause regression of the arthritis"
same,mean right hindpaw thickness,"[6]; day 23, SA 300 mg/kg/day CI or MTX […] IP from day 16, control 321, normal about 170 U",258 U
same,"suppression of AA, single drugs IP",[7],AA was not suppressed
same,body weight,[8],allowed weight gain
same,suppression of the disease by SA using this treatment protocol,[9]; SA 800 mg/kg/day IP,only transient suppression of the disease
same,inhibition of delta-aminolevulinic dehydratase,[10],potent inhibitor
same,tumorigenicity of allogeneic tumors,[11],enhance tumorigenicity of allogeneic tumors in rats
same,toxicity,[12],non-toxic to the animals at the level necessary for suppression of AA
same,CI versus IP regimen at suppressing the AA,[13]; 300 to 400 mg/kg/day CI vs 800 mg/kg/day IP,The CI regimen was more effective than the IP regimen at suppressing the AA
same,suppression of AA without death or weight loss,[13]; SA 300 to 400 mg/kg/day CI or 800 mg/kg/day IP,suppressed AA without causing death or weight loss in the rats
same,"SA dose at which AA was suppressed without death or weight loss, IP",[13]; daily intraperitoneal injection,800 mg/kg/day
"CN(Cc1cnc2nc(N)nc(N)c2n1)c1ccc(C(=O)N[C@@H](CCC(=O)O)C(=O)O)cc1 [MTX, Methotrexate]",inhibition of dihydrofolate reductase,[14],inhibits dihydrofolate reductase
"CC(=O)CC(=O)c1ccccc1C(=O)O [ABA, 2-acetoacetyl benzoic acid]",IC50,[15],91 ± 60 µM
same,IC50,[16],870 ± 280 µM
same,IC50,[17],~1600 µM
same,"footpad swelling at day 19, 4 days after cessation",[9]; ABA 400 mg/kg/day IP,decreased footpad swelling
same,"suppression of AA, ABA compared with SA",[9]; ABA 400 mg/kg/day IP vs SA 800 mg/kg/day IP,ABA is more efficacious than SA in suppressing AA
same,"footpad swelling, clinical disease scores and incidence of arthritis during administration","[9]; ABA 400 mg/kg/day IP, FIGS. 14 and 15","AA was suppressed; the footpad swelling, clinical disease scores and incidence of arthritis were all lowered"
same,Arthritis Incidence,"[9]; ABA 100 in ABA/PEG formulation, day 12",100%
same,Arthritis Incidence,"[9]; ABA 100 in ABA/PEG formulation, day 19",100%
same,suppression of arthritis,[9]; ABA 200 and 100 mg/kg/day IP,did not show observable suppression of arthritis
same,Arthritis Incidence,"[9]; ABA 200 in ABA/PEG formulation, day 12",100%
same,Arthritis Incidence,"[9]; ABA 200 in ABA/PEG formulation, day 19",100%
same,Arthritis Incidence,"[9]; ABA 400 in ABA/PEG formulation, daily IP day 5 to 15, day 12, control 100%",40%
same,Arthritis Incidence,"[9]; ABA 400 in ABA/PEG formulation, day 19 (4 days after cessation)",100%
same,"suppression of AA at 400 mg/kg/day, post-immunization regimen",[9]; ABA given IP,ABA suppressed AA at 400 mg/kg/day when given IP in a post-immunization regimen
